Source: US10815238B2, “Antimicrobial compounds and methods of making and using the same” (BIOVERSYS AG, priority 2013, dated 2020)

How the values were obtained:
[1] = test system: Eschericia coli (E. coli) strain ATCC25922; assay: Standard microdilution assay, MIC against E. coli ATCC25922; assay type: cell-based; details: Escherichia coli; E. coli strain ATCC25922, standard microdilution assay; cutoff 16 micrograms/mL; read-out: MIC E. Coli
Procedure, shortened: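 Scoring as + or − used a 16 micrograms/mL cutoff on minimum inhibitory concentrations. These came from CLSI-standard microdilution, quality-controlled with reference strains tested in the same run.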

[2] = test system: Staphylococcus aureus (S. aureus) 11540 strain; assay: Standard microdilution assay, MIC against S. aureus 11540; assay type: cell-based; details: S. aureus 11540 strain, standard microdilution assay, cutoff 16 micrograms/mL, read-out: MIC S. aureus
Protocol: The in vitro activity of the compounds of the present invention can be determined. Antimicrobial testing is typically performed to determine the minimum inhibitory concentration (MIC). Minimum inhibitory concentrations (MICs) are determined by the microdilution method in a final volume of 100 μl according to protocols outlined by The Clinical and Laboratory Standards Institute (CLSI). Performance standards for reference strains are assessed within the same experimental design to maintain quality control. See, for example, Clinical Laboratory Standards Institute: Methods for dilution antimicrobial susceptibility tests for bacteria that grow aerobically M7-A8. Approved Standard-Eighth Edition. Wayne, Pa.: CLSI; December 2008; and Clinical Laboratory Standards Institute: Performance Standards for Antimicrobial Susceptibility Testing M100-S20; Approved Standard-Twentieth Edition. Wayne, Pa.: CLSI; June 2010.
The compounds of the present invention were tested for antimicrobial activity. The Compounds 1-582 were run against Eschericia coli (E. coli) strain ATCC25922 and Compounds 320-582 were run against Staphylococcus aureus (S. aureus) 11540 strain using a standard microdilution assay to determine minimum inhibitory concentrations (MICs). […] It will be recognized by one skilled in the art that the compounds can be assessed against other bacterial organisms and that the presentation of data for activity against Eschericia coli and Staphylococcus aureus are illustrative and in no way is intended to limit the scope of the present invention. The compounds of the present invention can be assayed against a range of other microorganisms depending upon the performance activity desired to be gathered. Furthermore, the “+” and “−” representation and the selection of a cutoff value of 16 micrograms/mL is also illustrative and in no way is intended to limit the scope of the present invention.

MIC [1]	MIC [2]	Compound
< 16 µg/mL	< 16 µg/mL	C[C@H](N)CCCc1cc(Cl)c(F)c(-c2cc3cn(-c4ccc(C5(CCN)CN(C(=N)N)C5)cc4)c(=O)nc3[nH]2)c1 [Compound 403]
< 16 µg/mL	< 16 µg/mL	C[C@H](N)CCCc1cc(OC(F)(F)F)c(F)c(-c2cc3cn(-c4ccc([C@H](C)NCC[C@H](CNC(=O)CN)NC(=N)N)cc4)c(=O)nc3[nH]2)c1 [Compound 369]
< 16 µg/mL	< 16 µg/mL	C[C@H](N)CCCc1cc(Cl)c(F)c(-c2cc3cn(-c4ccc([C@@H]5CCC[C@@H](CCNc6ncc[nH]6)N5)cc4)c(=O)nc3[nH]2)c1 [Compound 552]
< 16 µg/mL	< 16 µg/mL	Cc1nnc(NC[C@@H](CCNC(=N)N)NCc2ccc(-n3cc4cc(-c5cc(CCC[C@H](C)N)cc(Cl)c5F)[nH]c4nc3=O)cc2)s1 [Compound 560]
< 16 µg/mL	< 16 µg/mL	C[C@H](N)CCCc1cc(OC(F)(F)F)c(F)c(-c2cc3cn(-c4ccc([C@H]5CC[C@H](CCNC(=N)N)N5)cc4)c(=O)nc3[nH]2)c1 [Compound 352]
> 16 µg/mL	< 16 µg/mL	C[C@H](N)CCCc1cc(Cl)c(F)c(-c2cc3cn(-c4ccc([C@@H]5CCC[C@H]6CCN=CN65)cc4)c(=O)nc3[nH]2)c1 [Compound 567]
< 16 µg/mL	< 16 µg/mL	C[C@H](N)CCCc1cc(Cl)c(F)c(-c2cc3cn(-c4ccc([C@@H](N)CCCN)cc4)c(=O)nc3[nH]2)c1 [Compound 410]
< 16 µg/mL	< 16 µg/mL	C[C@H](N)CCCc1cccc(-c2cc3cn(-c4ccc([C@@H]5CCC[C@@H](CCNC(=N)N)N5)cc4)c(=O)nc3[nH]2)c1 [Compound 531]
< 16 µg/mL	< 16 µg/mL	C[C@H](N)CCCc1cc(Cl)c(F)c(-c2cc3cn(-c4ccc([C@H](C)NCC[C@H](CNC(=O)CN)NC(=N)N)cc4)c(=O)nc3[nH]2)c1 [Compound 368]
< 16 µg/mL	< 16 µg/mL	C[C@H](N)CCCc1cc(OC(F)(F)F)c(F)c(-c2cc3cn(-c4ccc([C@@H]5CCC[C@@H](CCN)N5)cc4)c(=O)nc3[nH]2)c1 [Compound 429]
> 16 µg/mL	> 16 µg/mL	C[C@H](N)CCCc1cc(Cl)c(F)c(-c2cc3cn(-c4ccc([C@@H]5CCC[C@@H](CCn6ncoc6=O)N5)cc4)c(=O)nc3[nH]2)c1 [Compound 545]
< 16 µg/mL	< 16 µg/mL	C[C@H](N)CCCc1cc(Cl)c(F)c(-c2cc3cn(-c4ccc(C(O)[C@@H]5C[C@@H](NC(=N)N)CN5)cc4)c(=O)nc3[nH]2)c1 (some centres unmarked) [Compound 447]
> 16 µg/mL	> 16 µg/mL	C[C@H](N)CCCc1cc(Cl)c(F)c(-c2cc3cn(-c4ccc([C@@H]5CCC[C@@H](CNCC6CCOCC6)N5)cc4)c(=O)nc3[nH]2)c1 [Compound 550]
< 16 µg/mL	< 16 µg/mL	C[C@H](N)CCCc1cc(Cl)c(F)c(-c2cc3cn(-c4ccc(CN[C@H](CCNC(=N)N)CNc5nccs5)cc4)c(=O)nc3[nH]2)c1 [Compound 491]

The next lines start with the compound.

Compound	MIC [1]	MIC [2]
C[C@H](N)CCCc1cc(Cl)c(F)c(-c2cc3cn(-c4ccc([C@@H]5CCC[C@@H](CCC6CC6)N5)cc4)c(=O)nc3[nH]2)c1 [Compound 532]	> 16 µg/mL	< 16 µg/mL
C[C@H](N)CCCc1cc(OC(F)(F)F)c(F)c(-c2cc3cn(-c4ccc([C@H](C)NCC[C@H](CC(N)=O)NC(=N)N)cc4)c(=O)nc3[nH]2)c1 [Compound 344]	< 16 µg/mL	< 16 µg/mL
C[C@H](N)CCCc1cc(Cl)c(F)c(-c2cc3cn(-c4ccc([C@H]5COC[C@@H](CO)N5)cc4)c(=O)nc3[nH]2)c1 [Compound 390]	> 16 µg/mL	> 16 µg/mL
C[C@H](N)CCCc1cc(Cl)c(F)c(-c2cc3cn(-c4ccc([C@@H]5CC(CCN)CN5)cc4)c(=O)nc3[nH]2)c1 (some centres unmarked) [Compound 406]	< 16 µg/mL	< 16 µg/mL
Cc1noc(C[C@@H]2CCC[C@@H](c3ccc(-n4cc5cc(-c6cc(CCC[C@H](C)N)cc(Cl)c6F)[nH]c5nc4=O)cc3)N2)n1 [Compound 497]	> 16 µg/mL	< 16 µg/mL
C[C@H](N)CCCN1CC[C@@H](c2cc3cn(-c4ccc(CNCCCNC(=N)N)cc4)c(=O)nc3[nH]2)C1 [Compound 577]	< 16 µg/mL	< 16 µg/mL
C[C@H](N)CCCc1cc(Cl)c(F)c(-c2cc3cn(-c4ccc([C@@H]5CCC[C@@H](CNCc6nccn6C)N5)cc4)c(=O)nc3[nH]2)c1 [Compound 551]	> 16 µg/mL	> 16 µg/mL
CC(=O)NCC[C@@H]1CCC[C@@H](c2ccc(-n3cc4cc(-c5cc(CCC[C@H](C)N)cc(Cl)c5F)[nH]c4nc3=O)cc2)N1 [Compound 501]	> 16 µg/mL	> 16 µg/mL
C[C@H](N)CCCc1cc(Cl)c(F)c(-c2cc3cn(-c4ccc(CN[C@H](CCNC(=N)N)CNS(C)(=O)=O)cc4)c(=O)nc3[nH]2)c1 [Compound 544]	< 16 µg/mL	< 16 µg/mL
C[C@H](N)CCCc1cc(OC(F)(F)F)c(F)c(-c2cc3cn(-c4ccc([C@@H]5COC[C@H](CCNC(=N)N)N5)cc4)c(=O)nc3[nH]2)c1 [Compound 357]	< 16 µg/mL	< 16 µg/mL
C[C@H](N)CCCc1cc(OC(F)(F)F)c(F)c(-c2cc3cn(-c4ccc(CN[C@H](C)C[C@H](CCO)NC(=N)N)cc4)c(=O)nc3[nH]2)c1 [Compound 396]	< 16 µg/mL	< 16 µg/mL
C=C[C@@H](C[C@H](C)NCc1ccc(-n2cc3cc(-c4cc(CCC[C@H](C)N)cc(OC(F)(F)F)c4F)[nH]c3nc2=O)cc1)NC(=N)N [Compound 337]	< 16 µg/mL	< 16 µg/mL
C[C@H](N)CCCc1cc(Cl)c(F)c(-c2cc3cn(-c4ccc([C@@H]5COC[C@@H](CO)N5)cc4)c(=O)nc3[nH]2)c1 [Compound 452]	> 16 µg/mL	> 16 µg/mL
C[C@H](N)CCCc1cc(OC(F)(F)F)c(F)c(-c2cc3cn(-c4ccc([C@@H](C)NCCCNC(=N)N)cc4)c(=O)nc3[nH]2)c1 [Compound 321]	< 16 µg/mL	< 16 µg/mL
C[C@H](N)CCCc1cc(Cl)c(F)c(-c2cc3cn(-c4ccc([C@H]5CCC[C@H](CCNc6ncc[nH]6)N5)cc4)c(=O)nc3[nH]2)c1 [Compound 542]	< 16 µg/mL	< 16 µg/mL
C[C@H](N)CCCc1cc(Cl)c(F)c(-c2cc3cn(-c4ccc([C@@H]5COC[C@@H](CCN)N5)cc4)c(=O)nc3[nH]2)c1 [Compound 354]	< 16 µg/mL	< 16 µg/mL
C[C@H](N)CCN1CCC(c2cc3cn(-c4ccc([C@@H]5CCC[C@@H](CCNC(=N)N)N5)cc4)c(=O)nc3[nH]2)C1 (some centres unmarked) [Compound 579]	< 16 µg/mL	< 16 µg/mL
C[C@H](N)CCCc1cc(Cl)c(F)c(-c2cc3cn(-c4ccc(C(O)CNC(=N)N)cc4)c(=O)nc3[nH]2)c1 (some centres unmarked) [Compound 471]	< 16 µg/mL	< 16 µg/mL
C[C@H](N)CCCc1cc(OC(F)(F)F)c(F)c(-c2cc3cn(-c4ccc([C@@H]5COC[C@@H](CNC(=N)N)N5)cc4)c(=O)nc3[nH]2)c1 [Compound 466]	< 16 µg/mL	< 16 µg/mL
C[C@H](N)CCCc1cc(Cl)c(F)c(-c2cc3cn(-c4ccc([C@@H]5CCC[C@@H](CCNc6nccs6)N5)cc4)c(=O)nc3[nH]2)c1 [Compound 535]	> 16 µg/mL	< 16 µg/mL
COC(=O)[C@H](CCNC(=N)N)N[C@@H](C)c1ccc(-n2cc3cc(-c4cc(CCC[C@H](C)N)cc(Cl)c4F)[nH]c3nc2=O)cc1 [Compound 356]	< 16 µg/mL	< 16 µg/mL
C[C@H](N)CCCc1cc(OC(F)(F)F)c(F)c(-c2cc3cn(-c4ccc(CN5CC[C@H](CN6CCOCC6)NC5=N)cc4)c(=O)nc3[nH]2)c1 [Compound 419]	< 16 µg/mL	< 16 µg/mL
C[C@H](NCCCNC(=N)N)c1ccc(-n2cc3cc(-c4cc(CCC[C@@H](N)COP(=O)(O)O)cc(Cl)c4F)[nH]c3nc2=O)cc1 [Compound 487]	< 16 µg/mL	< 16 µg/mL
C[C@H](N)CCCc1cc(Cl)c(F)c(-c2cc3cn(-c4ccc([C@@H]5CCC[C@@H](CCN)N5)cc4)c(=O)nc3[nH]2)c1 [Compound 421]	< 16 µg/mL	< 16 µg/mL
N=C(N)NCC[C@H]1CC[C@H](c2ccc(-n3cc4cc(-c5cc(CCC[C@@H](N)CO)cc(Cl)c5F)[nH]c4nc3=O)cc2)N1 [Compound 482]	< 16 µg/mL	< 16 µg/mL
C[C@H](CN)COC(=O)N1CC[C@@H](c2cc3cn(-c4ccc(CNCCCNC(=N)N)cc4)c(=O)nc3[nH]2)C1 [Compound 571]	< 16 µg/mL	< 16 µg/mL
C[C@H](N)CCCc1cc(Cl)c(F)c(-c2cc3cn(-c4ccc([C@@H]5CCC[C@@H](CCNC(N)=O)N5)cc4)c(=O)nc3[nH]2)c1 [Compound 510]	> 16 µg/mL	> 16 µg/mL
Cc1cc(OC[C@@H](CCNC(=N)N)NCc2ccc(-n3cc4cc(-c5cc(CCC[C@H](C)N)cc(Cl)c5F)[nH]c4nc3=O)cc2)no1 [Compound 518]	< 16 µg/mL	< 16 µg/mL
C[C@H](N)CCCc1cc(Cl)c(F)c(-c2cc3cn(-c4ccc(CN[C@@H](C)C[C@@H](CO)NC(=N)N)cc4)c(=O)nc3[nH]2)c1 [Compound 436]	< 16 µg/mL	< 16 µg/mL
